For experiment [1], the target named is T1, Cellular ERK5 Activity (Homo sapiens, UniProt Q13164).
T1 construct: MEF2-response-element luciferase reporter (pGreenFire1)
As to the kind of experiment: Inhibition of Cellular ERK5 Activity (cell-based assay, MEF2 luciferase reporter in SN12C cells). The settings on record: renal cancer cell line SN12C, doxycycline-induced MEK5DD, 0.3-10000 nM, mean where repeated. Here is the method:
(§1) Two assays were performed to assess the ERK5 inhibitory activity of compounds of the Examples, a cell-based assay and a cell-free biochemical assay. Where repeat measurements were taken, the value reported is a mean average.
Inhibition of Cellular ERK5 Activity
The renal cancer cell line SN12C was transduced by a lentivirus pGreenFire1 MEF2 EF1 Neo (ref TR030VA-N) from SBI using standard infection protocol. pGreenFire1 MEF2 EF1 Neo allows the expression of luciferase gene under the control of minimal promoter with MEF2 transcriptional response elements. Cells harboring the reporter construct were selected by geneticin treatment. The selected cells were then transposed by a piggyback based plasmid pCM4007 allowing the expression of constitutively activated MEK5DD under control of TREG3 promoter, a doxycycline regulated promoter. Transposed cells were selected by puromycin treatment. Upon doxycycline treatment (1 μg/ml) MEK5DD was expressed. MEK5DD activates ERK5 that phosphorylates MEF2C protein. Activated MEF2C protein can bind to its transcriptional response elements. Then the luciferase is expressed. In a 96-well plate (96F nuncleon ref137101 thermofisher), 50,000 cells were inoculated in 142.5 μl of RPMI medium containing 10% fetal calf serum, 1% glutamine, and 1 μg/ml doxycycline. After 24 hours, compounds were added in 7.5 μl culture medium (with 2% DMSO to give a final concentration of 0.1%) in order to obtain the desired concentration (0.3-10000 nM). The luciferase activity was measured using the Kit Bright Glo Luminescent Cell Assay Cat E2610 (Promega) according to the manufacturer's protocol. Luminescence was determined using 0.2 second reading/well using a Tecan SPARK. IC50 values were calculated using XLFIT5 for Microsoft Excel using method 205. The IC50 values represent the concentration of compound which inhibits the measurable luminescence signal by 50% as compared to DMSO-treated control cells.

The target in experiment [2] is T2, activated catalytic domain of protein ERK5 (Homo sapiens, UniProt Q13164).
T2 construct: purchased CarnaBiosciences #04-146
As to the kind of experiment: Cell-Free Assay of ERK5 Inhibition (Time-Resolved Forster Resonance Energy Transfer). It counts as biochemical. The note with it: ERK5 4 nM, 1 mM ATP, 1 μM biotinylated 4EBP1 peptide, 30 min at 37° C.; TR-FRET; mean where repeated. Here is the method: as §1
Cell-Free Assay of ERK5 Inhibition
An assay was performed to measure the capacity of each compound to inhibit ERK5 enzymatic activity. Compound potency was evaluated by Time-Resolved Forster Resonance Energy Transfer (FRET system). The activated catalytic domain of protein ERK5 (CarnaBiosciences #04-146) was mixed at 4 nM with varying concentrations of compound and incubated for 30 minutes at room temperature. A mixture of 1 mM ATP and 1 μM biotinylated synthetic peptide was added (Biosyntan GmbH). This synthetic peptide represents amino acids 30-52 of Eukaryotic translation initiation factor 4E-binding protein 1 (see, e.g., the sequence under accession No. NP_004086.1) biotinylated at the N-terminus. After 30 minutes at 37° C., the peptide phosphorylation by ERK5 was measured by addition of FRET reagents consisting of 12.5 µg/ml Streptavidin-XL665, 1 nM Anti-P-4EBP1 antibody and 300 ng/ml Anti-rabbit-K antibody. Following 90 minutes at room temperature fluorescent signals were read on the Pherastar FSX multimod detector from BMG Labtech (Exc° 340 nm, Em1 620 nm, Em2 665 nm). The IC50 values represent the concentration of compound which inhibits the measurable fluorescence signal by […] as compared to the DMSO only control.

T1 sequence (Q13164 whole entry): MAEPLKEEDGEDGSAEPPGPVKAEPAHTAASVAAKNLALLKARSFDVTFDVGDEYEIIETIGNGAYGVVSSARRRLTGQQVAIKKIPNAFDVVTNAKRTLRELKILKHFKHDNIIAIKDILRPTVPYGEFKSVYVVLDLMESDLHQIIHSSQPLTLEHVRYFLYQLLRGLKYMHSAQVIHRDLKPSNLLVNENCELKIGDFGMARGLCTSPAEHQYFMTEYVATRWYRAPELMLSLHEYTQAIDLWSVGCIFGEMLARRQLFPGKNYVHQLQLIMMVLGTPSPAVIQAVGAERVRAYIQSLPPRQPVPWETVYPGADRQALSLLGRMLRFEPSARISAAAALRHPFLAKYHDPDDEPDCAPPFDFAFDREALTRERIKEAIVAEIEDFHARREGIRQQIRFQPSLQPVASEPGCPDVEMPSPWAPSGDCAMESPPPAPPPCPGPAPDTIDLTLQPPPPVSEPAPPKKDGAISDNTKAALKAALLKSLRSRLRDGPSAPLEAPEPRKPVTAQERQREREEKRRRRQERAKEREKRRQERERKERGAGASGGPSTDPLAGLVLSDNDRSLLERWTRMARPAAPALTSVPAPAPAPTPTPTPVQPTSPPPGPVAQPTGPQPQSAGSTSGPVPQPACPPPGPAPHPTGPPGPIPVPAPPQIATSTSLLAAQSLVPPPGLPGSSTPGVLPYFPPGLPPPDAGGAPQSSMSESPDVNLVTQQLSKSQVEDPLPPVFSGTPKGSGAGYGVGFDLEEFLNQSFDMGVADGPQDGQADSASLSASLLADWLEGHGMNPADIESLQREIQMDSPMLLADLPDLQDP
T2 sequence (Q13164 55-347 limits assumed): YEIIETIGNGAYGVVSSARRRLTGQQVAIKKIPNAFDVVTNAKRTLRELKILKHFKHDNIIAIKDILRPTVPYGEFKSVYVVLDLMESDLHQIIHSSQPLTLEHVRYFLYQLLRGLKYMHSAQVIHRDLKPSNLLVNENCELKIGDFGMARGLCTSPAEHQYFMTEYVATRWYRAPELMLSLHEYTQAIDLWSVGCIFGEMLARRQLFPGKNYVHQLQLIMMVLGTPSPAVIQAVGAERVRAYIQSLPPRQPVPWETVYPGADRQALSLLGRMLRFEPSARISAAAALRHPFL

Turning to `O=C(c1ccc(OC(F)(F)F)cc1)N1CCC(c2c[nH]c3ncc(C4CCOC4)nc23)CC1` (racemic) [Example 5, (rac)-[4-(2-Tetrahydrofuran-3-yl-5H-pyrrolo[2,3-b]pyrazin-7-yl)-1-piperidyl]-[4-(trifluoromethoxy)phenyl]methanone], the IC50 in experiment [1] came to 88 nM; in experiment [2], 212 nM.
`Nc1cc(OC(F)(F)F)ccc1C(=O)N1CCC(c2c[nH]c3ncc(C4CCOC4)nc23)CC1` (racemic) [Example 12, (rac)-[2-Amino-4-(trifluoromethoxy)phenyl]-[4-(2-tetrahydrofuran-3-yl-5H-pyrrolo[2,3-b]pyrazin-7-yl)-1-piperidyl]methanone] had an IC50 in experiment [2] of 130 nM.
As to `Nc1cc(OC(F)(F)F)ccc1C(=O)N1CCC(c2c[nH]c3ncc(C4CCOCC4)nc23)C1` (racemic) [Example 24, (rac)-[2-Amino-4-(trifluoromethoxy)phenyl]-[3-(2-tetrahydropyran-4-yl-5H-pyrrolo[2,3-b]pyrazin-7-yl)pyrrolidine-1-yl]methanone], inhibition in experiment [1] was half-maximal at 261 nM (IC50).
In experiment [1], `O=C(c1ccc(OC(F)(F)F)cc1)N1CCC(c2c[nH]c3ncc(C4CCOCC4)nc23)C1` (racemic) [Example 25, (rac)-[3-(2-Tetrahydropyran-4-yl-5H-pyrrolo[2,3-b]pyrazin-7-yl)pyrrolidin-1-yl]-[4-(trifluoromethoxy)phenyl]methanone] gave an IC50 of 230 nM.
Turning to `O=C(c1ccc(OC(F)(F)F)cc1)N1CCC(c2c[nH]c3ncc(NC4CCOC4)nc23)CC1` (racemic) [Example 36, (rac)-[4-[2-[[tetrahydrofuran-3-yl]amino]-5H-pyrrolo[2,3-b]pyrazin-7-yl]-1-piperidyl]-[4-(trifluoromethoxy)phenyl]methanone], the IC50 is 124 nM in experiment [1] and 291 nM in experiment [2].
Regarding `Nc1cc(OC(F)(F)F)ccc1C(=O)N1CCC(c2c[nH]c3ncc(NC4CCOC4)nc23)CC1` (racemic) [Example 37, (rac)-[2-amino-4-(trifluoromethoxy)phenyl]-[4-[2-[[tetrahydrofuran-3-yl]amino]-5H-pyrrolo[2,3-b]pyrazin-7-yl]-1-piperidyl]methanone], the IC50 in experiment [1] worked out at 60 nM; in experiment [2] it was 94 nM.
On the same counts, the results for `Nc1cc(S(F)(F)(F)(F)F)ccc1C(=O)N1CCC(c2c[nH]c3ncc(C4CCOCC4)nc23)C1` (racemic) [Example 43, (rac)-[2-amino-4-(pentafluoro-λ^6-sulfanyl)phenyl]-[3-(2-tetrahydropyran-4-yl-5H-pyrrolo[2,3-b]pyrazin-7-yl)pyrrolidin-1-yl]methanone] are 357 nM and 9720 nM.
Take `Nc1cc(OC(F)(F)F)ccc1C(=O)N1CCC(c2c[nH]c3ncc(C4CCOC4)nc23)CC1` (single isomer, unassigned) [Example 13, [2-Amino-4-(trifluoromethoxy)phenyl]-[4-(2-tetrahydrofuran-3-yl-5H-pyrrolo[2,3-b]pyrazin-7-yl)-1-piperidyl]methanone]: the IC50 in experiment [1] amounted to 49 nM; in experiment [2] it was 93 nM.
The like results for `Nc1cc(OC(F)(F)F)ccc1C(=O)N1CCC(c2c[nH]c3ncc(C4CCOC4)nc23)CC1` (single isomer, unassigned) [Example 14, [2-Amino-4-(trifluoromethoxy)phenyl]-[4-(2-tetrahydrofuran-3-yl-5H-pyrrolo[2,3-b]pyrazin-7-yl)-1-piperidyl]methanone] were, in that order, 46 nM and 99 nM.
For `O=C(c1ccc(OC(F)(F)F)cc1)N1CCC(c2c[nH]c3ncc(NC4CCOC4)nc23)CC1` (single isomer, unassigned; isomer 1) [Example 32, [4-[2-[[tetrahydrofuran-3-yl]amino]-5H-pyrrolo[2,3-b]pyrazin-7-yl]-1-piperidyl]-[4-(trifluoromethoxy)phenyl]methanone, Isomer 1], the IC50 in experiment [1] was found to be 79 nM; in experiment [2] it was 361 nM.
The like results for `Nc1cc(OC(F)(F)F)ccc1C(=O)N1CCC(c2c[nH]c3ncc(NC4CCOC4)nc23)CC1` (single isomer, unassigned; isomer 1) [Example 34, [2-amino-4-(trifluoromethoxy)phenyl]-[4-[2-[[tetrahydrofuran-3-yl]amino]-5H-pyrrolo[2,3-b]pyrazin-7-yl]-1-piperidyl]methanone, Isomer 1] were, in that order, > 10000 nM and 94 nM.
On to `O=C(c1ccc(OC(F)(F)F)cc1)N1CCC(c2c[nH]c3ncc(NC4CCOC4)nc23)CC1` (single isomer, unassigned; isomer 2) [Example 33, [4-[2-[[tetrahydrofuran-3-yl]amino]-5H-pyrrolo[2,3-b]pyrazin-7-yl]-1-piperidyl]-[4-(trifluoromethoxy)phenyl]methanone, Isomer 2], for which the IC50 is 126 nM in experiment [1] and 335 nM in experiment [2].
With `Nc1cc(OC(F)(F)F)ccc1C(=O)N1CCC(c2c[nH]c3ncc(NC4CCOC4)nc23)CC1` (single isomer, unassigned; isomer 2) [Example 35, [2-amino-4-(trifluoromethoxy)phenyl]-[4-[2-[[tetrahydrofuran-3-yl]amino]-5H-pyrrolo[2,3-b]pyrazin-7-yl]-1-piperidyl]methanone, Isomer 2], the IC50 in experiment [1] turned out to be 246 nM; in experiment [2] it was 131 nM.
On to `CN1CCC(c2cnc3[nH]cc(C4CCN(C(=O)c5ccc(OC(F)(F)F)cc5N)CC4)c3n2)CC1` [Example 1, [2-Amino-4-(trifluoromethoxy)phenyl]-[4-[2-(1-methyl-4-piperidyl)-5H-pyrrolo[2,3-b]pyrazin-7-yl]-1-piperidyl]methanone], for which the results for the half-inhibitory concentration (IC50) in experiment [1] and in experiment [2] were 20 nM and 17 nM, respectively.
For `Nc1cc(OC(F)(F)F)ccc1C(=O)N1CCC(c2c[nH]c3ncc(C4CCOCC4)nc23)CC1` [Example 2, [2-Amino-4-(trifluoromethoxy)phenyl]-[4-(2-tetrahydropyran-4-yl-5H-pyrrolo[2,3-b]pyrazin-7-yl)-1-piperidyl]methanone], the figures for the IC50 in experiment [1] and in experiment [2] were 15 nM and 37 nM, respectively.
The like results for `O=C(c1ccc(OC(F)(F)F)cc1)N1CCC(c2c[nH]c3ncc(C4CCOCC4)nc23)CC1` [Example 3, [4-(2-Tetrahydropyran-4-yl-5H-pyrrolo[2,3-b]pyrazin-7-yl)-1-piperidyl]-[4-(trifluoromethoxy)phenyl]methanone] were, in that order, 41 nM and 172 nM.
Regarding `CN1CCC(c2cnc3[nH]cc(C4CCN(C(=O)c5ccc(OC(F)(F)F)cc5)CC4)c3n2)CC1` [Example 4, [4-[2-(1-Methyl-4-piperidyl)-5H-pyrrolo[2,3-b]pyrazin-7-yl]-1-piperidyl]-[4-(trifluoromethoxy)phenyl]methanone], the IC50 in experiment [1] was 60 nM; in experiment [2], 66 nM.
For `COCCCc1cnc2[nH]cc(C3CCN(C(=O)c4ccc(OC(F)(F)F)cc4)CC3)c2n1` [Example 6, [4-[2-(3-Methoxypropyl)-5H-pyrrolo[2,3-b]pyrazin-7-yl]-1-piperidyl]-[4-(trifluoromethoxy)phenyl]methanone], the IC50 was 118 nM in experiment [1] and 403 nM in experiment [2].
With `COCCCc1cnc2[nH]cc(C3CCN(C(=O)c4ccc(OC(F)(F)F)cc4N)CC3)c2n1` [Example 7, [2-Amino-4-(trifluoromethoxy)phenyl]-[4-[2-(3-methoxypropyl)-5H-pyrrolo[2,3-b]pyrazin-7-yl]-1-piperidyl]methanone], the IC50 in experiment [1] is 56 nM; in experiment [2], 169 nM.
Turning to `Nc1cc(OC(F)(F)F)ccc1C(=O)N1CCC(c2c[nH]c3ncc([C@H]4CC[C@H](O)CC4)nc23)CC1` [Example 30, trans-[2-amino-4-(trifluoromethoxy)phenyl]-[4-[2-(4-hydroxycyclohexyl)-5H-pyrrolo[2,3-b]pyrazin-7-yl]-1-piperidyl]methanone], 39 nM corresponded to half-maximal inhibition in experiment [2] (IC50).

These data come from patent publication US20260308157A1, “Pyrrolopyrazine Compounds, Preparation Thereof and Therapeutic Uses Thereof” (Sanofi, priority 2023, published 2026).
